{
  "source": "paper PMC8279416",
  "about": "“Structural Fine-Tuning of Desmuramylpeptide NOD2 Agonists Defines Their In Vivo Adjuvant Activity” (Journal of Medicinal Chemistry, 2021)",
  "key": {"[1]": {"system": "MEC1 B-chronic lymphocytic leukemia cells", "assay": "PBMC cytotoxicity assay against MEC1 cells (flow cytometry)", "assay_type": "cell-based", "description": "(§1) In the present study, we examined these desmuramylpeptides in terms of potentiation of the cytotoxic activity of the PBMCs against cancer cells. To this end, we used a previously described flow-cytometry-based cytotoxicity assay where PBMCs are co-incubated with fluorescently labeled cancer cells.[89] As indicated above, the NOD2-mediated NK cell activity originates from both the direct effects of NOD2 agonists on NK cells and the indirect activation through cytokine release by other NOD2-responsive cells, including monocytes. Thus, we used the whole PBMC population as the effector cells, rather than isolated NK cells, to provide conditions that would be closer to the in vivo environment, wherein the immune responses can be reinforced by interactions between the distinct immune cell subpopulations. Two malignant cell lines were used as the target cells in a 40:1 effector to target cell ratio: MEC1 B-chronic lymphocytic leukemia cells, and K562 chronic myelogenous leukemia cells. The K562 cells are considered a “classic” NK cell target, as they lack the expression of major histocompatibility complex (MHC) class I that is required for NK cell inhibition.[90]\nThe PBMC cytotoxicity assays using K562 and MEC1 cells were performed as described previously, with some modifications.[89] PBMCs were seeded (4 × 10^5 cells/well) in 96-well plates and treated with compounds (0.1–10 μM) or vehicle (0.1% DMSO) for 18 h. The K562 or MEC1 cells were stained with CFSE (Invitrogen, Carlsbad, CA, U.S.A.), washed twice with complete medium, and added (1 × 10^4 cells/well) to pretreated PBMCs for a final effector cell to target tumor cell ratio of 40:1. After a 4 h co-incubation (37 °C, 5% CO2), cells were stained with Sytox blue dead cell stain (Invitrogen) and analyzed using an Attune NxT flow cytometer (Thermo Fisher Scientific, Waltham, MA, U.S.A.) and the FlowJo software (Tree Star, Inc., Ashland, OR, U.S.A.). […] Statistical significance was determined by one-way ANOVA followed with Dunnett’s multiple comparisons test."}, "[2]": {"system": "K562 chronic myelogenous leukemia cells", "assay": "PBMC cytotoxicity assay against K562 cells (flow cytometry)", "assay_type": "cell-based", "description": "as §1\nThe PBMC cytotoxicity assays using K562 and MEC1 cells were performed as described previously, with some modifications.[89] PBMCs were seeded (4 × 10^5 cells/well) in 96-well plates and treated with compounds (0.1–10 μM) or vehicle (0.1% DMSO) for 18 h. The K562 or MEC1 cells were stained with CFSE (Invitrogen, Carlsbad, CA, U.S.A.), washed twice with complete medium, and added (1 × 10^4 cells/well) to pretreated PBMCs for a final effector cell to target tumor cell ratio of 40:1. After a 4 h co-incubation (37 °C, 5% CO2), cells were stained with Sytox blue dead cell stain (Invitrogen) and analyzed using an Attune NxT flow cytometer (Thermo Fisher Scientific, Waltham, MA, U.S.A.) and the FlowJo software (Tree Star, Inc., Ashland, OR, U.S.A.). Cells that were positive for both CFSE and Sytox blue were defined as dead K562 and MEC1 cells. PBMCs alone and the CFSE-labeled cancer cells alone were also treated with the compounds at the same concentrations and stained with Sytox blue to determine any direct cytotoxicity of the compounds toward the PBMCs and cancer cells. The experiments were run in duplicate and repeated as three independent biological replicates. Statistical significance was determined by one-way ANOVA followed with Dunnett’s multiple comparisons test."}, "[3]": {"system": "CD4+ T cells (OT II) cocultured with BMDCs", "assay": "BMDC antigen presentation assay with ovalbumin-specific CD4+ T cells", "assay_type": "cell-based, mouse", "conditions": "ovalbumin 50 μg/mL, 72 h coculture", "description": "(§2) To evaluate the adjuvant potential of the two most-promising desmuramylpeptides, 68 and 75, in terms of their effects on DC-mediated activation of CD4^+ and CD8^+ T cells, we used an in vitro antigen-presentation assay with C57BL/6 mouse bone-marrow-derived DCs (BMDCs). Following stimulation with 68 and 75 (1 or 10 μM) in the presence of ovalbumin soluble protein (50 μg/mL), BMDCs were cocultured with carboxyfluorescein succinimidyl ester (CFSE)-labeled naive ovalbumin-specific CD4^+ or CD8^+ T cells, which were isolated from splenocytes of OT II and OT I transgenic mice, respectively. After 3 days of coculture, CD25 (α subunit of IL-2 receptor)[108] expression was determined, along with the CFSE dilution, as markers of T-cell activation and proliferation, respectively. Furthermore, we also examined how this desmuramylpeptide-induced priming of T cells affected the secreted cytokine profiles in BMDC/T-cell cocultures.\nCD4^+ and CD8^+ T cells were purified from splenocytes of OT II and OT I transgenic mice using CD4^+ and CD8^+ T cell isolation kits (Miltenyi Biotec, Germany), according to manufacturer instructions. Purified T cells were stained with CFSE (Invitrogen, Carlsbad, CA, U.S.A.) and washed. Then, 5 × 10^4 T cells were mixed with 1 × 10^4 BMDCs per well (pretreated with desmuramylpeptides [1 or 10 μM] and 50 μg/mL ovalbumin [InvivoGen, San Diego, CA, U.S.A.] for 18 h, and then washed). […] The cells were stained with Fixable viability dye eFluor 780 (eBioscience, Thermo Fisher Scientific, MA, U.S.A.), anti-Thy1.2-PE-Cy7 antibodies (Biolegend, San Diego, CA, U.S.A.), anti-CD8-eFluor450 antibodies (eBioscience), anti-CD4-eFluor450 antibodies (eBioscience), and anti-CD25-APC antibodies (Biolegend) and analyzed using a Beckman Coulter Cytoflex S flow cytometer (CA, U.S.A.) and FlowJo software (Tree Star, Inc., Ashland, OR, U.S.A.). Live Thy1.2^+/CD4^+ and Thy1.2^+/CD8^+ were evaluated for CFSE dilution and CD25 expression. […] Statistical significance was determined by one-way ANOVA followed by Dunnett’s multiple comparisons test."}, "[4]": {"system": "BMDC/CD4+ T-cell cocultures", "assay": "T cell cytokine release in BMDC/T-cell cocultures", "assay_type": "cell-based, mouse", "conditions": "BMDCs pretreated with 10 μM, CD4+ T cells, 72 h", "description": "as §2, with “Furthermore, we also examined how this desmuramylpeptide-induced priming of T cells affected the secreted cytokine profiles in BMDC/T-cell cocultures.” left out\nSupernatants from CD4^+ and CD8^+ T cells after 72 h of co-incubation with BMDCs (pretreated with desmuramylpeptides [10 μM] and washed) were collected as described above. The cytokine concentrations were determined with the Cytometric Bead Array Mouse Th1/Th2/Th17 Cytokine Kit (contents: IL-2, IL-4, IL-6, IFN-γ, TNF, IL-17A, IL-10; BD Bioscience) on an Attune NxT flow cytometer (Thermo Fisher Scientific, Waltham, MA, U.S.A.). […] The data were analyzed using the FlowJo (Tree Star, Inc., Ashland, OR, U.S.A.) and Prism (GraphPad, San Diego, CA, U.S.A.) software. […]"}, "[5]": {"system": "CD8+ T cells (OT I) cocultured with BMDCs", "assay": "BMDC antigen cross-presentation assay with ovalbumin-specific CD8+ T cells", "assay_type": "cell-based, mouse", "conditions": "ovalbumin 50 μg/mL, 72 h coculture", "description": "as §2\nCD4^+ and CD8^+ T cells were purified from splenocytes of OT II and OT I transgenic mice using CD4^+ and CD8^+ T cell isolation kits (Miltenyi Biotec, Germany), according to manufacturer instructions. […] Live Thy1.2^+/CD4^+ and Thy1.2^+/CD8^+ were evaluated for CFSE dilution and CD25 expression. […] Statistical significance was determined by one-way ANOVA followed by Dunnett’s multiple comparisons test."}, "[6]": {"conditions": "10 μM, 18 h pretreatment, 4 h co-incubation, 40:1"}, "[7]": {"conditions": "10 μM, CD25 expression and CFSE dilution"}},
  "data": [
    {"smiles": "CCCCCCCCCCCCCCCCCC(=O)Oc1ccc(/C=C/C(=O)NCC(=O)N[C@H](C(=O)N[C@H](CCC(=O)OCC)C(=O)OCC)[C@@H](C)O)cc1OC", "note": "[Compound 81, Diethyl ((E)-3-(3-Methoxy-4-(stearoyloxy)phenyl)acryloyl)glycyl-L-threonyl-D-glutamate]", "values": [
      {"measurement": "Boost to the cytotoxicity of PBMCs against MEC1 cells", "setting": "[1]; [6]", "result": "devoid of activity"},
      {"measurement": "Boost to the cytotoxicity of PBMCs against K562 cells", "setting": "[2]; [6]", "result": "devoid of activity"}
    ]},
    {"smiles": "COc1cc(/C=C/C(=O)NCC(=O)N[C@H](C(=O)N[C@H](CCC(=O)OC2CCCC2)C(=O)OC2CCCC2)C(C)C)ccc1O", "note": "[Compound 68, Dicyclopentyl ((E)-3-(4-Hydroxy-3-methoxyphenyl)acryloyl)glycyl-L-valyl-D-glutamate]", "values": [
      {"measurement": "BMDC-mediated CD4+ T-cell activation and proliferation", "setting": "[3]; 1 μM", "result": "also showed this effect"},
      {"measurement": "BMDC-mediated CD4+ T-cell activation and proliferation", "setting": "[3]; [7]", "result": "significantly enhanced"},
      {"measurement": "Levels of IL-2, IL-6, IFN-γ, TNF-α and IL-17A in coculture supernatants", "setting": "[4]", "result": "elevated levels"},
      {"measurement": "Levels of Th2-associated IL-4 and IL-10 in coculture supernatants", "setting": "[4]", "result": "unaffected levels"},
      {"measurement": "BMDC processing and cross-presentation of ovalbumin to CD8+ T cells", "setting": "[5]", "result": "significantly increased"}
    ]},
    {"smiles": "CCCCCCCCCCCCCCCCCC(=O)Oc1ccc(/C=C/C(=O)NCC(=O)N[C@H](C(=O)N[C@H](CCC(=O)OCC)C(=O)OCC)C(C)C)cc1OC", "note": "[Compound 75, Diethyl ((E)-3-(3-Methoxy-4-(stearoyloxy)phenyl)acryloyl)glycyl-L-valyl-D-glutamate]", "values": [
      {"measurement": "Boost to the cytotoxicity of PBMCs against MEC1 cells", "setting": "[1]; 100 nM", "result": "no effects were seen against either cell line"},
      {"measurement": "Boost to the cytotoxicity of PBMCs against MEC1 cells", "setting": "[1]; [6]", "result": "significant boost"},
      {"measurement": "Boost to the cytotoxicity of PBMCs against K562 cells", "setting": "[2]; 100 nM", "result": "no effects were seen against either cell line"},
      {"measurement": "Boost to the cytotoxicity of PBMCs against K562 cells", "setting": "[2]; 1 μM", "result": "still significant"},
      {"measurement": "Boost to the cytotoxicity of PBMCs against K562 cells", "setting": "[2]; [6]", "result": "significant boost"},
      {"measurement": "BMDC-mediated CD4+ T-cell activation and proliferation", "setting": "[3]; [7]", "result": "significantly enhanced"}
    ]}
  ]
}
